Measured values taken from ChEMBL document CHEMBL1926599, “Bis(oxyphenylene)benzimidazoles: a novel class of anti-Plasmodium falciparum agents” (Bioorg Med Chem, 2011).
Activity calls are given as the source filed them. No cut-off for these calls is given here.

Experiments:
L6 = assay: Cytotoxicity against rat L6 cells after 72 hrs by resazurin-based spectrophotometric assay; type: cell-based; settings: L6, 72 h
Giardia intestinalis = assay: Antiprotozoal activity against Giardia intestinalis G1 after 70 hrs by resazurin-based spectrophotometric assay; type: functional, organism-based; settings: Giardia duodenalis, G1, 70 h
Entamoeba histolytica = assay: Antiprotozoal activity against Entamoeba histolytica Hk-9 trophozoites after 70 hrs by resazurin-based spectrophotometric assay; type: functional, organism-based; settings: Hk-9, 70 h
[1] = tested on: Trypanosoma brucei rhodesiense; assay: Antitrypanosomal activity against bloodstream form of Trypanosoma brucei rhodesiense STIB 900 after 70 hrs by resazurin-based spectrophotometric assay; type: functional, organism-based; settings: STIB 900, 70 h
Trypanosoma cruzi = assay: Antitrypanosomal activity against trypomastigote form of Trypanosoma cruzi Tulahuen C2C4 expressing Lac Z infected in rat L6 cells after 96 hrs by spectrophotometry; type: functional, organism-based; settings: Tulahuen C2C4, L6, 96 h
Leishmania donovani = assay: Antileishmanial activity against Leishmania donovani MHOM-ET-67/L82 after 72 hrs by resazurin-based spectrophotometric assay; type: functional, organism-based; settings: MHOM-ET-67/L82, 72 h
Plasmodium falciparum = assay: Antiplasmodial activity against chloroquine and pyrimethamine-resistant Plasmodium falciparum K1 assessed as inhibition of [3H]hypoxanthine incorporation incubated for 48 hrs prior to [3H] hypoxanthine addition measured after 24 hrs by liquid scintillation counting; type: functional, organism-based
[2] = Selectivity ratio of IC50 for rat L6 cells to IC50 for Plasmodium falciparum K1; type: ADME, cell-based; settings: read-out: Ratio IC50
[3] = Inhibition of beta-hematin formation in aqueous acetate buffer; type: functional
[4] = Selectivity ratio of IC50 for rat L6 cells to IC50 for Entamoeba histolytica Hk-9; type: ADME, cell-based; settings: read-out: Ratio IC50
[5] = Selectivity ratio of IC50 for rat L6 cells to IC50 for bloodstream form of Trypanosoma brucei rhodesiense STIB 900; type: ADME, cell-based; settings: read-out: Ratio IC50
[6] = Selectivity ratio of IC50 for rat L6 cells to IC50 for Giardia intestinalis G1; type: ADME, cell-based; settings: read-out: Ratio IC50
[7] = tested on: Trypanosoma brucei rhodesiense; assay: Antitrypanosomal activity against bloodstream form of Trypanosoma brucei rhodesiense STIB 900 after 70 hrs by resazurin-based spectrophotometric assay relative to melarsoprol; type: functional
[8] = Selectivity ratio of IC50 for rat L6 cells to IC50 for Leishmania donovani MHOM-ET-67/L82; type: ADME, cell-based; settings: read-out: Ratio IC50

| SMILES | IC50 (L6) [µM] | IC50 (Giardia intestinalis) [µM] | IC50 (Entamoeba histolytica) [µM] | IC50 [1] [µM] | IC50 (Trypanosoma cruzi) [µM] | IC50 (Leishmania donovani) [µM] | IC50 (Plasmodium falciparum) [µM] | selectivity ratio [2] | inhibition [3] | selectivity ratio [4] | selectivity ratio [5] | selectivity ratio [6] | Ratio IC50 [7] | selectivity ratio [8] |
| --- | --- | --- | --- | --- | --- | --- | --- | --- | --- | --- | --- | --- | --- | --- |
| c1ccc2[nH]c(-c3ccc(OCCOc4ccc(-c5nc6ccccc6[nH]5)cc4)cc3)nc2c1 | 25.4 | 124 | 191 | 154 | 133 | > 202 | 2.01 | 13 | – | – | – | – | – | – |
| Cc1ncc([N+](=O)[O-])n1CCO [METRONIDAZOLE] | – | 1.56 | 5.82 | – | – | – | – | – | – | – | – | – | – | – |
| c1ccc2[nH]c(-c3ccc(OCCCCCCCCCCOc4ccc(-c5nc6ccccc6[nH]5)cc4)cc3)nc2c1 | 46 | 22.1 | 19.3 | 9.34 | 88.5 | 124 | 0.18 | 257 | – | – | – | – | – | – |
| c1ccc2[nH]c(-c3ccc(OCCCCOc4ccc(-c5nc6ccccc6[nH]5)cc4)cc3)nc2c1 | 7.84 | 17.9 | 8.13 | 2.76 | 5.75 | 3.25 | 0.44 | 18 | Active | 1 | – | – | – | – |
| c1ccc2[nH]c(-c3ccc(OCCCCCCCCCOc4ccc(-c5nc6ccccc6[nH]5)cc4)cc3)nc2c1 | 101 | 0.83 | 30.7 | 0.81 | > 165 | 5.93 | 0.29 | 344 | – | – | 123 | 123 | – | – |
| c1ccc2[nH]c(-c3ccc(OCCCCCCCOc4ccc(-c5nc6ccccc6[nH]5)cc4)cc3)nc2c1 | 48.4 | 1.34 | 21.7 | 1.08 | 14.8 | 1.53 | 0.23 | 208 | Active | – | – | – | – | – |
| O=C(Cn1ccnc1[N+](=O)[O-])NCc1ccccc1 [BENZNIDAZOLE] | – | – | – | – | 1.13 | – | – | – | – | – | – | – | – | – |
| c1cc(OCc2ccc(COc3cccc(-c4nc5ccccc5[nH]4)c3)cc2)cc(-c2nc3ccccc3[nH]2)c1 | 10.4 | – | – | 24 | 10.9 | 8.44 | 0.19 | 54 | – | – | – | – | – | – |
| c1ccc(COc2ccc(-c3nc4ccccc4[nH]3)cc2)c(COc2ccc(-c3nc4ccccc4[nH]3)cc2)c1 | 5.89 | – | – | 1.32 | 6.07 | 2.33 | 0.34 | 17 | – | – | – | – | – | – |
| c1ccc2[nH]c(-c3ccc(OCCCCCCOc4ccc(-c5nc6ccccc6[nH]5)cc4)cc3)nc2c1 | 9.61 | 3.58 | > 199 | 7.22 | 6.05 | 6.59 | 0.24 | 40 | Active | – | – | – | – | – |
| c1ccc2[nH]c(-c3ccc(OCCCCCCCCOc4ccc(-c5nc6ccccc6[nH]5)cc4)cc3)nc2c1 | 19.8 | 10.4 | 65.8 | 39.1 | 57 | 98.2 | 0.3 | 67 | – | – | – | – | 100 | – |
| c1cc(OCCOc2cccc(-c3nc4ccccc4[nH]3)c2)cc(-c2nc3ccccc3[nH]2)c1 | 5.04 | 11.7 | 84 | 16.6 | 4.68 | 24.1 | 2.58 | 2 | Active | – | – | – | – | – |
| c1cc(OCCCCCCOc2cccc(-c3nc4ccccc4[nH]3)c2)cc(-c2nc3ccccc3[nH]2)c1 | 7.98 | 17.7 | 73.7 | 2.37 | 3.88 | 2.57 | 0.28 | 29 | – | – | – | – | – | – |
| c1ccc2[nH]c(-c3ccc(OCOc4ccc(-c5nc6ccccc6[nH]5)cc4)cc3)nc2c1 | 14.4 | – | – | 2.13 | 11.3 | 16.5 | 0.69 | 21 | – | – | – | – | – | – |
| c1cc(OCOc2cccc(-c3nc4ccccc4[nH]3)c2)cc(-c2nc3ccccc3[nH]2)c1 | 18.9 | – | – | 14.2 | 11.6 | 6.19 | 1.69 | 11 | – | – | – | – | – | – |
| c1cc(COc2ccc(-c3nc4ccccc4[nH]3)cc2)cc(COc2ccc(-c3nc4ccccc4[nH]3)cc2)c1 | > 172 | – | – | 3.56 | 113 | 1.05 | 0.38 | > 450 | – | – | – | – | – | > 164 |
| c1ccc2[nH]c(-c3ccc(OCc4ccc(COc5ccc(-c6nc7ccccc7[nH]6)cc5)cc4)cc3)nc2c1 | 16 | – | – | 2.12 | 26.3 | 0.8 | 0.23 | 70 | – | – | – | – | – | – |
| c1ccc2[nH]c(-c3ccc(OCCCOc4ccc(-c5nc6ccccc6[nH]5)cc4)cc3)nc2c1 | 3.56 | 0.74 | 3.37 | 1.5 | 3.91 | 2.67 | 0.28 | 13 | Active | 1 | – | – | – | – |
| c1ccc2[nH]c(-c3ccc(OCCCCCOc4ccc(-c5nc6ccccc6[nH]5)cc4)cc3)nc2c1 | 6.82 | 0.82 | 22.7 | 1.02 | 2.42 | 0.8 | 0.27 | 26 | Active | – | – | – | – | – |
| c1cc(OCCCCCCCOc2cccc(-c3nc4ccccc4[nH]3)c2)cc(-c2nc3ccccc3[nH]2)c1 | 118 | 25.8 | 56.7 | 1.37 | 1.82 | 2.69 | 0.41 | 291 | Active | – | – | – | – | – |
| c1cc(OCCCOc2cccc(-c3nc4ccccc4[nH]3)c2)cc(-c2nc3ccccc3[nH]2)c1 | 9.82 | 56.1 | 78.3 | 8.01 | 8.92 | 3.91 | 2.41 | 4 | Active | – | – | – | – | – |
| c1cc(OCCCCCCCCCCOc2cccc(-c3nc4ccccc4[nH]3)c2)cc(-c2nc3ccccc3[nH]2)c1 | 72.2 | 172 | 22.2 | 2.08 | 83.2 | 13.3 | 0.36 | 202 | – | – | – | – | – | – |
| c1cc(COc2cccc(-c3nc4ccccc4[nH]3)c2)cc(COc2cccc(-c3nc4ccccc4[nH]3)c2)c1 | 79.6 | – | – | 3.6 | 5.99 | 4.63 | 0.4 | 198 | – | – | – | – | – | – |
| c1cc(OCCCCCOc2cccc(-c3nc4ccccc4[nH]3)c2)cc(-c2nc3ccccc3[nH]2)c1 | 3.56 | 18.5 | 27.8 | 1.33 | 1.7 | 1.19 | 0.34 | 10 | – | – | – | – | – | – |
| c1cc(OCc2ccccc2COc2cccc(-c3nc4ccccc4[nH]3)c2)cc(-c2nc3ccccc3[nH]2)c1 | 7.02 | – | – | 2.66 | 2.53 | 3 | 0.34 | 20 | – | – | – | – | – | – |
| c1cc(OCCCCCCCCCOc2cccc(-c3nc4ccccc4[nH]3)c2)cc(-c2nc3ccccc3[nH]2)c1 | 21.9 | 45.5 | 46.2 | 2.37 | 4.98 | 6.59 | 0.57 | 39 | – | – | – | – | – | – |
| c1cc(OCCCCCCCCOc2cccc(-c3nc4ccccc4[nH]3)c2)cc(-c2nc3ccccc3[nH]2)c1 | 13.1 | 52.4 | 23.5 | 4.5 | 4.28 | 5.9 | 0.45 | 29 | – | – | – | – | – | – |
| c1cc(OCCCCOc2cccc(-c3nc4ccccc4[nH]3)c2)cc(-c2nc3ccccc3[nH]2)c1 | 21.2 | 36 | 211 | 18.5 | 23.9 | 9.99 | 0.23 | 92 | Active | – | – | – | – | – |
